Data: patent US20090032427A1, “Receptacles and Kits, Such as for Dry Powder Packaging” (Nektar Therapeutics, priority 2005, published 2009)

Legend:
[1] = cited from earlier work
[2] = amphotericin B lung-residence half-life (bronchioalveolar lavage / lung tissue homogenization); type: in vivo; details: pulmonary administration
fungus = assay: minimum inhibitory concentration (MIC) of amphotericin B; type: cell-based; details: midrange of the MIC range, 300′ of FIG. 25
Protocol: In one version, an aerosolizeable pharmaceutical composition comprising amphotericin B is administered to the lungs and/or nasal cavity of a patient in a manner that results in an amphotericin B concentration greater than a minimum inhibitory concentration (MIC) of the fungus. The MIC is defined as the lowest concentration of amphotericin B that inhibits fungal growth. The MIC may be expressed as a particular concentration value or as a range of concentrations. A method according to one or more embodiments of the present invention administers a sufficient amount of the pharmaceutical composition to achieve a target lung concentration of amphotericin B that falls within the range of MIC values or is above a particular MIC value. In another version, the target lung concentration of amphotericin B exceeds the MIC range. In another version, the target lung concentration of amphotericin B exceeds the lowest value in an MIC range. […] As used herein, unless otherwise specified, the MIC value shall be taken to be the particular value when a particular MIC value is determined and shall be taken to be a midrange value when a range of MIC values is determined. […]
The MIC value for amphotericin B in this version has been determined to range from about 0.5 μg/g to about 4 μg/g, as shown by block 300. […]

Structure (SMILES): CCCCCCCCCCCCCCCC(=O)OC[C@H](COP(=O)([O-])OCC[N+](C)(C)C)OC(=O)CCCCCCCCCCCCCCC [DPPC, dipalmitoylphosphatidylcholine]
- solubility in water [1]: about 10^−10 mol/L

Structure (SMILES): C[C@@H]1[C@H](O)[C@@H](C)/C=C/C=C/C=C/C=C/C=C/C=C/C=C/[C@H](O[C@@H]2O[C@H](C)[C@@H](O)[C@H](N)[C@@H]2O)C[C@@H]2O[C@](O)(C[C@@H](O)C[C@@H](O)[C@H](O)CC[C@@H](O)C[C@@H](O)CC(=O)O[C@H]1C)C[C@H](O)[C@H]2C(=O)O [amphotericin B]
- amphotericin B lung-residence half-life in lung epithelial fluid ([2]; lung epithelial fluid, measured by bronchioalveolar lavage): at least 10 hours
- amphotericin B lung-residence half-life in lung tissue ([2]; lung tissue, measured by lung tissue homogenization): at least 1 week
- midrange MIC value (fungus): about 2.25 μg/g
